These results are taken from ChEMBL document CHEMBL4418276, “Boldine derivatives for promoting bone growth” (2014).

The target of the assay is T1, Sclerostin (Homo sapiens, UniProt Q9BQB4).
T1 sequence (Q9BQB4 whole entry): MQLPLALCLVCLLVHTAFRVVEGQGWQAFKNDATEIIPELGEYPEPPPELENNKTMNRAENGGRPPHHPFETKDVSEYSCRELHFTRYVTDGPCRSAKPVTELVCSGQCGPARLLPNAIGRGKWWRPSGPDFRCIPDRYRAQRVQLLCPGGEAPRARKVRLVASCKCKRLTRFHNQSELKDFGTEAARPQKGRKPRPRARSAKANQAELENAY
The experiment in a line: Inhibition of sclerostin in human embryonic cells assessed as restoration of Wnt signaling by luciferase reporter gene assay. It is filed as cell-based.

pIC50: −log10 of the molar value.

Usually pIC50 stands for the IC50 on a negative log10 scale, so that one unit is a factor of ten. In the case of `COc1cc2c(cc1OC)-c1c(OC)c(OC)c(C=O)c3c1[C@H](C2)N(C)CC3`, the negative logarithm of the IC50 (pIC50) is 5.82.
